pKd: −log10 of the molar value. Numbered stars: 1 amine (or outer) side, 2 acyl side, 3 side chain; on linkers, the order of the positions; unused ones are H or OH. Bridge positions count the residues as written; N and C are the ends. Square brackets hold non-standard residues; d marks the D form. Triazole bridges read from a SMILES are 1,4-linked. Peptide text beside a SMILES is read from it. * marks the point of attachment. RhodamineB = CCN(CC)c1ccc2c(-c3ccccc3C(=O)*)c3ccc(=[N+](CC)CC)cc-3oc2c1; Lys(N3) = [N-]=[N+]=NCCCC[C@H](N)C(=O)O; NMeGABA = CN(CCCC(=O)[*:2])[*:1]; Pra = C#CC[C@H](N)C(=O)O
Assays:
Caco2 = assay: RB-EPP6 uptake in Caco2 cells; assay type: cell-based; settings: RB conjugate
MDCK cell monolayers = assay type: in vitro ADME, canine
Experimental: FIBCD1 Lentiviral target, at different multiplicities of infection (MOI) levels. The cells were then incubated at 37 °C and 5% CO2. After 48 hours, the media was removed and replaced with fresh new media. Cell selection was carried out using G418 (Alfa Aesar) at 1 mg/mL for 7 days, and the surviving cells were collected and analyzed for FIBCD-KO efficiency by western blot. The best candidate was used for the RB-EPP6 uptake experiments described above.
200k MDCK cells were seeded in 200 μL of complete media in the apical side transwell insert (12-well 8 μm pore size Transwell-65 mm). In addition, 1 mL of complete growth media is added to the basolateral chamber. Six transwell inserts were prepared for a TAT peptide labeled with RB (RB-[…]), and six other inserts were prepared for RB-EPP6. The plate was incubated for 2-3 days at 37 °C with 5% CO2. The electrical resistance of the MDCK transwell inserts was measured using the EVOM Epithelial Voltohmmeter to monitor the integrity of tight junctions for the following two days. On day 3, serum-free media was used to wash both the apical (200 μL) and basolateral (1 mL) wells three times. […]
The assay was carried out in apical to basolateral directions. […] After that, 80 μL of the samples were collected from each chamber for RB fluorescence intensity reading using a Synergy […]

zebrafish larvae = assay: Biodistribution in zebrafish larvae, fluorescence microscopy; assay type: in vivo; settings: larvae 6 dpf, 1 h incubation; compared with free rhodamine dye and RB-GSQTH control
full-length FIBCD1 = biological target: T1, full-length FIBCD1 (Homo sapiens, UniProt Q8N539); assay: Fluorescence polarization (FP) assay; assay type: binding; settings: RB conjugates 50 nM, 1% BSA/PBST, room temperature 30 min, Hill fit; recombinant full-length FIBCD1 from CHO cells
T1 construct: We overexpressed full-length FIBCD1 in CHO cells, extracted and purified the protein; host or cells: ExpiCHO (CHO) cells
T1 sequence (Q8N539 1-461): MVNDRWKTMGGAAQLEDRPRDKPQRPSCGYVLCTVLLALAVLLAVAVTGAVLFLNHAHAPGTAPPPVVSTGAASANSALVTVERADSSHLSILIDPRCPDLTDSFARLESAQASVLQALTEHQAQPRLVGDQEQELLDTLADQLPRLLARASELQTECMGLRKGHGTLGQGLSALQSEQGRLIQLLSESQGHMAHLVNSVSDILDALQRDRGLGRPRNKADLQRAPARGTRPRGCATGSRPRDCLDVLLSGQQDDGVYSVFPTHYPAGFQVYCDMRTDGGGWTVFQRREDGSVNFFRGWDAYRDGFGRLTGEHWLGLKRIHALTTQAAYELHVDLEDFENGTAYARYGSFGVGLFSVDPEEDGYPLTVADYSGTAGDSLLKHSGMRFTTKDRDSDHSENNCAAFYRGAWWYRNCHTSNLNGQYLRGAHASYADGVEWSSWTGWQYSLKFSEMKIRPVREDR
Experimental: experiment. Poly-A selective RNA-seq libraries were prepared using the NEB NextUltra II kit (New England Biolabs) and sequenced on an Illumina NextSeq500 with 2×75 pair-end reads. The obtained sequencing data was preprocessed using fastp, aligned using STAR, and counted using featureCounts. Differentially expressed genes were identified using DESeq2. The sequence data and analysis reports are deposited in the GEO repository (Accession # GSE202764) […]
U87 cells were incubated with 500 nM RB-EPP6 and YOYO, together with chondroitin sulfate (CSA) in complete media. After 1 h, trypsin was used to detach the cells. Cell pellets were collected by centrifugation. Fresh phenol-free medium was added to each condition. […]
Human FIBCD1 cDNA with an MYC-DDK tag was ordered from Origene (#RC206180) and was expressed using the mammalian expression system kit ExpiCHOTM (#A29133) as generally described by MAN0014337. […] The obtained full-length FIBCD1 was quantified using BCA.
Fluorescence polarization (FP) assay
Solutions of RB-EPPs (in 1% BSA/PBST) were added to different concentrations of full-length FIBCD1 (in 1% BSA/PBST). […] The solutions were incubated at room temperature for 30 minutes on an orbital shaker, and the fluorescence polarization values were quantified using a BioTek Synergy H1 plate reader, with an FP filter set (excitation 530/25, emission 590/35). […]

U87 cells = assay: Cell viability by YOYO staining, flow cytometry; assay type: cell-based, human; settings: RB-EPP6 20 nM to 100 μM
Experimental: Confocal imaging experiments
To image the cells, a Zeiss 880 inverted confocal laser scanning microscope (Carl Zeiss, Germany) was used. Image acquisition and analyses were carried out using the manufacturer’s software (ZEN, Carl Zeiss). Quantification of fluorescence intensity in single cells was performed using Fiji […]
Flow cytometry experiments
To perform flow cytometry experiments, a NovoCyte flow cytometer (NovoExpress) was used.
Quantification of fluorescence intensity was achieved using the Novoxpress software. Fifty thousand cells were analyzed for each condition. A green fluorescent dye used for DNA staining, YOYO, was included in all the flow cytometry experiments, serving as a cell live/dead indicator.
[…]
2 μL of RB-EPP (in DMSO) was added to the solution at a concentration of 500 μM. […] Samples were collected from both phases and quantified by Analytical HPLC separately. […]

## CCN(CC)c1ccc2c(-c3ccccc3C(=O)N(C)CCCC(=O)N[C@H]3Cc4cn(nn4)CCCC[C@@H](C(N)=O)NC(=O)[C@H](CO)NC(=O)[C@H](Cc4ccc(O)cc4)NC(=O)[C@H](Cc4ccc(O)cc4)NC(=O)[C@H](CO)NC(=O)[C@H](Cc4ccc(O)cc4)NC3=O)c3ccc(=[N+](CC)CC)cc-3oc2c1 [RB-EPP6, RB-cy(YSYYS)] (RhodamineB-[NMeGABA][Pra]YSYYS[Lys(N3)]-NH2; triazole 2-8)
Caco2
  uptake in Caco2 cells: did not exhibit EPP6 uptake
MDCK cell monolayers
  Papp: 5.25 × 10^–6
  Papp compared with RB-TAT47–57: more than twice
Zebrafish larvae
  tissue accumulation in zebrafish larvae: preferentially accumulated in the olfactory pit and neuromasts
full-length FIBCD1
  pKd: ~6.70
U87 cells
  effect on cell viability: without affecting cell viability
